Measured values from patent publication US8445510B2, “Fused bicyclic kinase inhibitors” (OSI Pharmaceuticals, LLC, priority 2011, dated 2013).

Columns and labels:
Type in all cases: cell-based
[1] = test system: MKN45 cells; assay: MKN45 cell proliferation assay (CellTiter-Glo); conditions: Homo sapiens, MKN-45, 72 h; MKN45 cell line; 3 days incubation; at least duplicate experiments; read-out: Prolif. IC50
Procedure: The effect of inhibitors on the proliferation of MKN45 cells was determined using the following protocol. MKN45 cells were plated in Corning 3917 96-well white tissue culture treated plates in growth medium (RPMI, 10% FCS) at a density of 5000 cells/well in a total volume of 135 μL and incubated at 37° C., 5% CO2, 95% humidity overnight. The following day, one-tenth volume of a 10× concentration of compounds was added to the wells in an 8-point dilution series. The dilution series was composed of an initial 1:5 dilution of a 10 mM stock of compound in DMSO, followed by serial 1:4 dilutions in DMSO, then a 1:20 dilution in growth medium prior to the 1:10 dilution into the cell plate. […] The typical dilution range is 10 μM to 0.6 nM. Once the compound was added to the cells, plates were incubated for 3 days at 37° C., 5% CO2 at 95% humidity. On the third day, after allowing all cells and reagents to come to room temperature, 25 μL of CellTiter-Glo reagent (Promega #G7573) was added to the wells. Plates were shaken on a platform for 10 minutes prior to reading luminescence for 0.1 seconds. The signal of the control wells was taken as 100% growth and growth inhibition was expressed as percent of control. IC50 values were determined from the percent of control data using a standard four-parameter model.
(§1) The IC50 values of exemplary compounds of the present invention determined in a cell proliferation assay using the MKN45 cell line according to the procedures described herein in at least duplicate experiments are abbreviated as follows and are shown in Table 2: A, IC50≦0.05 μM; B, 0.05 μM<IC50≦0.2 μM; C, 0.2 μM<IC50≦1 μM; D, IC50>1 μM; ND, not determined. The Example # of Table 2 corresponds to the compound example number as illustrated in the Examples section.
Treatment of this cell line with a selective c-MET inhibitor led to induction of apoptosis and inhibition of proliferation, whereas non-MET-amplified cell lines were not affected [Smolen et al., Proc. Natl. Acad. Sci. USA, 103(7):2316-2321 (2006)]. This cell line is thus “driven” by c-MET, and antiproliferative effects correlate very well with the inhibition of c-MET phosphorylation so that the cell proliferation IC50, values can be used as surrogate for the c-MET cell mechanistic IC50, values. Under the assay conditions described herein, the IC50 values correlate nearly 1:1.

[2] = target: T1, RON (Homo sapiens, UniProt Q04912); assay: sfRON cell mechanistic assay (HeLa), phosphorylated RON ELISA; conditions: HeLa cells transfected with sfRON; inhibition of phosphorylated RON; four hours incubation; at least duplicate experiments; read-out: sfRON mech IC50
T1 sequence (Q04912 913-1400): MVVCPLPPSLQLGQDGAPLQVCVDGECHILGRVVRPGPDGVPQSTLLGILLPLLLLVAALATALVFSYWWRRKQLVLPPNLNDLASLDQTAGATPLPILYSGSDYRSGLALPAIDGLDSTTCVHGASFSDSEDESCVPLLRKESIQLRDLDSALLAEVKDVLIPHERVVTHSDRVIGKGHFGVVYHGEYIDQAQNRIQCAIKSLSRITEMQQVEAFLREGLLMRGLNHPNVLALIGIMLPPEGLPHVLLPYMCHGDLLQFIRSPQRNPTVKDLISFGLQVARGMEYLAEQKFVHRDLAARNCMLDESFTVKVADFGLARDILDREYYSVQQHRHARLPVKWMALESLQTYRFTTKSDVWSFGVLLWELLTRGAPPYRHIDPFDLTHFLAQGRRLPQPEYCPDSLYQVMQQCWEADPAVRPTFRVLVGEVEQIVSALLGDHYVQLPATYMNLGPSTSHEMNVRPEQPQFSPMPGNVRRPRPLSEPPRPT
Procedure: The cellular activity of the compounds of the present invention against RON may be determined by the following procedure. HeLa cells were plated in Falcon 3072 96-well plates in growth media (DMEM, 10% FBS, 1% L-glutamine) at a density of 10000 cells/well and incubated at 37° C., 5% CO2 overnight. The following day, cells were transfected with 0.2 μg sfRON-pcDNA plasmid DNA with 0.5 μL Lipofectamine-2000 per well in the presence of 50 μL OPTI-MEM, incubated at 37° C., 5% CO2 overnight. Costar 3915 96-well assay plates were coated with rabbit Anti-RON antibody at 2.0 μg/mL, sealed, and incubated overnight at 4° C. On the third day, coated plates were washed with PBS and blocked with 3% BSA. For the sfRON transfected cells, one-tenth volume of a 10× concentration of compounds was added to the wells in a 6-point dilution series. The dilution series was composed of an initial 1:5 dilution of a 10 mM DMSO stock solution of compound in DMSO, followed by a 1:10 dilution in growth media, for a final DMSO concentration on cells of 0.5%. Control wells were treated with 0.5% DMSO. The typical range of dilution was 10 μM to 3 nM. Once compound was added to the cells, plates were incubated for four hours at 37° C., 5% CO2. Plates were then washed in PBS, and lysed in triton-based lysis buffer. Lysates were transferred to the blocked capture plates. The phosphorylated RON levels were measured by incubating with a Goat polyclonal antibody against phosphorylated RON ([pYpY1238/1239]) followed by an anti-Goat antibody conjugated to HRP. Signal was measured on a Wallac Victor plate reader with luminance. The DMSO signal of the control wells was defined as 100% and the percent of inhibition of phosphorylated RON was expressed as percent of control. IC50 values were determined from the percent of control data using a standard four-parameter model.
The IC50 values of exemplary compounds of the present invention determined in a sfRON cell mechanistic assay using the HeLa cell line according to the procedures described herein in at least duplicate experiments are abbreviated as follows and are shown in Table 3: A, IC50≦0.2 μM; B, 0.2 μM<IC50≦1.0 μM; C, IC50>1 μM; ND, not determined. The Example # of Table 3 corresponds to the compound example number as illustrated in the Examples section.

[3] = test system: Karpas-299 cells; assay: Karpas-299 cell proliferation assay (CellTiter-Glo); conditions: Homo sapiens, 72 h; Karpas-299 cell line (NPM-ALK); 3 days incubation; at least duplicate experiments; read-out: Prolif. IC50
Procedure: The effect of inhibitors on the proliferation of Karpas-299 cells (DSMZ no. ACC 31) was determined using the following protocol. Karpas-299 cells were plated in 96-well white tissue culture treated plates (Corning 3917) in growth medium (RPMI, 10% FCS) at a density of 5000 cells/well in a total volume of 135 μL and incubated at 37° C., 5% CO2, 95% humidity overnight. The following day, one-tenth volume of a 10× concentration of compounds was added to the wells in an 8-point dilution series. Compounds were serially diluted (1:4) in DMSO from a 10 mM stock solution prior to dilution in growth media to the 10× working concentrations (5% DMSO). Final concentration of DMSO in compound-treated wells was 0.5%. Control wells containing growth media or growth media/0.5% DMSO were included in all test plates. […] Once the compounds were added to the cells, plates were incubated for 3 days at 37° C., 5% CO2 at 95% humidity. After 72 hours, all cells and reagents were equilibrated to room temperature and 15 μL of CellTiter-Glo reagent (Promega # G7573) was added to each well. Plates were shaken on a platform for 10 minutes at room temperature prior to reading luminescence. The value of the signal of the control wells was set as 100% growth and growth inhibition was expressed as percent of control. IC50 values were determined from the percent of control data using a standard four-parameter curve fit equation.
as §1, with “the Karpas-299” for “the MKN45”, “Table 5:” for “Table 2:”, “Table 5” for “Table 2”
The Karpas-299 cell line has a t(2; 5) chromosomal translocation and expresses the NPM-ALK fusion protein, resulting in constitutively active ALK. […] Ther. 6(12):3314-22 (2007)]. With this “ALK-driven” cell line, the cell proliferation IC50 values can thus be used as surrogate for the p-ALK cell mechanistic IC50 values.

SMILES	IC50 [1] [nM]	IC50 [2] [nM]	IC50 [3] [nM]
Cc1c(-c2cnc3[nH]cc([C@H](C)c4c(OC(F)F)ccc(F)c4Cl)c3c2)cnn1C[C@@H](O)CO [Example 87, (2R)-3-[4-(3-{(1S)-1-[2-Chloro-6-(difluoromethoxy)-3-fluorophenyl]ethyl}-1H-pyrrolo[2,3-b]pyridin-5-yl)-5-methyl-1H-pyrazol-1-yl]propane-1,2-diol]	≤ 50	≤ 200	≤ 50
Cc1c(-c2cnc3[nH]cc([C@H](C)c4c(OC(F)F)ccc(F)c4Cl)c3c2)cnn1[C@H]1CC[C@H](N(C)CC(=O)O)CC1 [Example 89, N-{trans-4-[4-(3-{(1S)-1-[2-Chloro-6-(difluoromethoxy)-3-fluorophenyl]ethyl}-1H-pyrrolo[2,3-b]pyridin-5-yl)-5-methyl-1H-pyrazol-1-yl]cyclohexyl}-N-methylglycine]	≤ 50	> 1000	50 to 200
COc1c(F)ccc(Cl)c1C(C)c1c[nH]c2ncc(-c3cnn([C@H]4CC[C@H](O)CC4)c3C)cc12 (stereo partly drawn) [Example 112, trans-4-(4-{3-[1-(6-Chloro-3-fluoro-2-methoxyphenyl)ethyl]-1H-pyrrolo[2,3-b]pyridin-5-yl}-5-methyl-1H-pyrazol-1-yl)cyclohexanol]	> 1000	> 1000	200 to 1000
Cc1c(-c2cnc3[nH]cc([C@H](C)c4c(OC(F)F)ccc(F)c4Cl)c3c2)cnn1[C@H]1CC[C@H](N2CCC[C@H]2C(=O)O)CC1 [Example 91, 1-{trans-4-[4-(3-{(1S)-1-[2-Chloro-6-(difluoromethoxy)-3-fluorophenyl]ethyl}-1H-pyrrolo[2,3-b]pyridin-5-yl)-5-methyl-1H-pyrazol-1-yl]cyclohexyl}-L-proline]	50 to 200	> 1000	50 to 200
COc1ccc(F)c(Cl)c1[C@@H](C)c1c[nH]c2ncc(-c3cnn([C@H]4CC[C@H](O)CC4)c3C(F)(F)F)cc12 [Example 40, trans-4-[4-{3-[(1S)-1-(2-Chloro-3-fluoro-6-methoxyphenyl)ethyl]-1H-pyrrolo[2,3-b]pyridin-5-yl}-5-(trifluoromethyl)-1H-pyrazol-1-yl]cyclohexanol]	50 to 200	> 1000	> 1000
COc1ccc(F)c(Cl)c1[C@@H](C)c1c[nH]c2ncc(-c3cnn([C@H]4CC[C@H](N)CC4)c3C)cc12 [Example 58, trans-4-(4-{3-[(1S)-1-(2-Chloro-3-fluoro-6-methoxyphenyl)ethyl]-1H-pyrrolo[2,3-b]pyridin-5-yl}-5-methyl-1H-pyrazol-1-yl)cyclohexanamine]	≤ 50	200 to 1000	≤ 50
[2H][C@@](C)(c1c(OC(F)F)ccc(F)c1Cl)c1c[nH]c2ncc(-c3cnn([C@H]4CC[C@H](O)CC4)c3C)cc12 [Example 114, trans-4-(4-{3-[(1S)-1-[2-Chloro-6-(difluoromethoxy)-3-fluorophenyl](1-^2H)ethyl]-1H-pyrrolo[2,3-b]pyridin-5-yl}-5-methyl-1H-pyrazol-1-yl)cyclohexanol]	≤ 50	≤ 200	≤ 50
Cc1c(-c2cnc3[nH]cc([C@H](CF)c4c(Cl)ccc(F)c4Cl)c3c2)cnn1[C@H]1CC[C@H](O)CC1 [Example 118, trans-4-(4-{3-[(1S)-1-(2,6-Dichloro-3-fluorophenyl)-2-fluoroethyl]-1H-pyrrolo[2,3-b]pyridin-5-yl}-5-methyl-1H-pyrazol-1-yl)cyclohexanol]	50 to 200	200 to 1000	50 to 200
Cc1c(-c2cnc3[nH]cc([C@H](C)c4c(OC(F)F)ccc(F)c4Cl)c3c2)cnn1[C@H]1CC[C@H](N)CC1 [Example 93, trans-4-[4-(3-{(1S)-1-[2-Chloro-6-(difluoromethoxy)-3-fluorophenyl]ethyl}-1H-pyrrolo[2,3-b]pyridin-5-yl)-5-methyl-1H-pyrazol-1-yl]cyclohexanamine]	≤ 50	≤ 200	≤ 50
Cc1c(-c2cnc3[nH]cc([C@H](C)c4c(OC(F)F)ccc(F)c4Cl)c3c2)cnn1[C@H]1CC[C@@H](O)CC1 [Example 86, cis-4-[4-(3-{(1S)-1-[2-Chloro-6-(difluoromethoxy)-3-fluorophenyl]ethyl}-1H-pyrrolo[2,3-b]pyridin-5-yl)-5-methyl-1H-pyrazol-1-yl]cyclohexanol]	≤ 50	200 to 1000	≤ 50
